Where two headings read alike, the source gives them in different places.
Experiments:
3_S2m RNA = assay: ligand-based 1H NMR (1D, CPMG, wLOGSY); type: binding, SARS-CoV-2; conditions: RNA:ligand 1:50
SARS-CoV-2 USA-WA1/2020 [1] = assay: microbe, parasite or virus in culture; type: cell-based; conditions: Severe acute respiratory syndrome coronavirus 2, 48 h; 293T-ACE2 cells, MOI 0.25, two days; read-out: SARS-CoV-2 EC50
SCoV2 USA-WA1/2020 = type: cell-based
ORF7b RNA = assay: ligand-based 1H NMR (1D, CPMG, wLOGSY); type: binding, SARS-CoV-2
SARS-CoV-2 USA-WA1/2020 [2] = assay: microbe, parasite or virus in culture; type: cell-based; conditions: Severe acute respiratory syndrome coronavirus 2, Vero C1008, 48 h, Vero E6 cells, MOI 0.025, two days; read-out: SARS-CoV-2 EC50
in vitro = conditions: African green monkey, uninfected Vero E6 cells
ATTL RNA = assay: ligand-based 1H NMR (1D, CPMG, wLOGSY); type: binding, SARS-CoV-2
SARS-CoV-2 = type: cell-based; conditions: 48 h post-infection
[3] = average of aliphatic protons, RNA:ligand 1:100 (clomiphene) or 1:50 (trim, qz2)
[4] = average of aromatic protons, RNA:ligand 1:100 (clomiphene) or 1:50 (trim, qz2)

CC(C)CCN1CCC(CNc2nc3ccccc3c(=O)[nH]2)CC1 [qz2]
LB (3_S2m RNA; qz2 peak F): -12.7%
LOGSY factor (3_S2m RNA; qz2 peak F): 2.81%
CPMG variation (3_S2m RNA; qz2 peak G): -1.76%
LB (3_S2m RNA; qz2 peak G): 4.32%
LOGSY factor (3_S2m RNA; qz2 peak G): 1.92%
CPMG variation (3_S2m RNA; qz2 peak I): 10.3%
LB (3_S2m RNA; qz2 peak I): 11.5%
LOGSY factor (3_S2m RNA; qz2 peak I): 5.19%
CPMG variation (3_S2m RNA; qz2 peak J): 9.16%
LB (3_S2m RNA; qz2 peak J): 11.3%
LOGSY factor (3_S2m RNA; qz2 peak J): 9.42%
CPMG variation (3_S2m RNA; qz2 peak K): 11.6%
LB (3_S2m RNA; qz2 peak K): -3.23%
LOGSY factor (3_S2m RNA; qz2 peak K): 18.7%
EC50 (SARS-CoV-2 USA-WA1/2020 [1]): 0.12 µM
nucleocapsid protein expression (SCoV2 USA-WA1/2020; 293T-ACE2, MOI 2, 8-h single cycle, added at +2 h relative to infection): strongly inhibited
time of addition with maximum inhibition (SCoV2 USA-WA1/2020; 293T-ACE2, MOI 2, relative to infection): -2 h
LB (ORF7b RNA; [3]): -7.94%
LOGSY factor (ORF7b RNA; [3]): 6.35%
CPMG variation (ORF7b RNA; [4]): 50.7%
LB (ORF7b RNA; [4]): 26.2%
LOGSY factor (ORF7b RNA; [4]): 33.7%
CPMG variation (ORF7b RNA; qz2 peak A, RNA:ligand 1:50): -33.2%
LB (ORF7b RNA; qz2 peak A, RNA:ligand 1:50): -5.02%
LOGSY factor (ORF7b RNA; qz2 peak A, RNA:ligand 1:50): 3.94%
CPMG variation (ORF7b RNA; qz2 peak C/D, RNA:ligand 1:50): -34.1%
LB (ORF7b RNA; qz2 peak C/D, RNA:ligand 1:50): -10.7%
LOGSY factor (ORF7b RNA; qz2 peak C/D, RNA:ligand 1:50): 9.65%
CPMG variation (ORF7b RNA; qz2 peak E/B, RNA:ligand 1:50): -16.1%
LB (ORF7b RNA; qz2 peak E/B, RNA:ligand 1:50): -1.09%
LOGSY factor (ORF7b RNA; qz2 peak E/B, RNA:ligand 1:50): 5.54%
CPMG variation (ORF7b RNA; qz2 peak F, RNA:ligand 1:50): -4.16%
LB (ORF7b RNA; qz2 peak F, RNA:ligand 1:50): -14.4%
LOGSY factor (ORF7b RNA; qz2 peak F, RNA:ligand 1:50): 6.18%
CPMG variation (ORF7b RNA; qz2 peak G, RNA:ligand 1:50): -19.2%
LB (ORF7b RNA; qz2 peak G, RNA:ligand 1:50): -8.90%
LOGSY factor (ORF7b RNA; qz2 peak G, RNA:ligand 1:50): 6.45%
CPMG variation (ORF7b RNA; qz2 peak I, RNA:ligand 1:50): 48.3%
LB (ORF7b RNA; qz2 peak I, RNA:ligand 1:50): 30.9%
LOGSY factor (ORF7b RNA; qz2 peak I, RNA:ligand 1:50): 7.00%
CPMG variation (ORF7b RNA; qz2 peak J, RNA:ligand 1:50): 45.5%
LB (ORF7b RNA; qz2 peak J, RNA:ligand 1:50): 38.3%
LOGSY factor (ORF7b RNA; qz2 peak J, RNA:ligand 1:50): 76.3%
CPMG variation (ORF7b RNA; qz2 peak K, RNA:ligand 1:50): 58.5%
LB (ORF7b RNA; qz2 peak K, RNA:ligand 1:50): 9.52%
LOGSY factor (ORF7b RNA; qz2 peak K, RNA:ligand 1:50): 17.9%
EC50 (SARS-CoV-2 USA-WA1/2020 [2]): 7.52 µM
CC50 at 2 days (in vitro): > 20 µM
CPMG variation (ATTL RNA; [3]): 1.57%
LB (ATTL RNA; [3]): 4.09%
LOGSY factor (ATTL RNA; [3]): 4.38%
CPMG variation (ATTL RNA; [4]): 10.0%
LB (ATTL RNA; [4]): 3.39%
LOGSY factor (ATTL RNA; [4]): 9.98%
CPMG variation (ATTL RNA; qz2 peak A, RNA:ligand 1:50): 7.14%
LB (ATTL RNA; qz2 peak A, RNA:ligand 1:50): 6.48%
LOGSY factor (ATTL RNA; qz2 peak A, RNA:ligand 1:50): 2.39%
CPMG variation (ATTL RNA; qz2 peak C/D, RNA:ligand 1:50): 3.98%
LB (ATTL RNA; qz2 peak C/D, RNA:ligand 1:50): 2.52%
LOGSY factor (ATTL RNA; qz2 peak C/D, RNA:ligand 1:50): 6.82%
CPMG variation (ATTL RNA; qz2 peak E/B, RNA:ligand 1:50): -8.59%
LB (ATTL RNA; qz2 peak E/B, RNA:ligand 1:50): 7.56%
LOGSY factor (ATTL RNA; qz2 peak E/B, RNA:ligand 1:50): 2.78%
CPMG variation (ATTL RNA; qz2 peak F, RNA:ligand 1:50): 7.26%
LB (ATTL RNA; qz2 peak F, RNA:ligand 1:50): -1.84%
LOGSY factor (ATTL RNA; qz2 peak F, RNA:ligand 1:50): 3.39%
CPMG variation (ATTL RNA; qz2 peak G, RNA:ligand 1:50): 2.72%
LB (ATTL RNA; qz2 peak G, RNA:ligand 1:50): 8.16%
LOGSY factor (ATTL RNA; qz2 peak G, RNA:ligand 1:50): 6.53%
CPMG variation (ATTL RNA; qz2 peak I, RNA:ligand 1:50): 9.63%
LB (ATTL RNA; qz2 peak I, RNA:ligand 1:50): 3.05%
LOGSY factor (ATTL RNA; qz2 peak I, RNA:ligand 1:50): 10.3%
CPMG variation (ATTL RNA; qz2 peak J, RNA:ligand 1:50): 9.03%
LB (ATTL RNA; qz2 peak J, RNA:ligand 1:50): 12.1%
LOGSY factor (ATTL RNA; qz2 peak J, RNA:ligand 1:50): 5.22%
CPMG variation (ATTL RNA; qz2 peak K, RNA:ligand 1:50): 10.5%
LB (ATTL RNA; qz2 peak K, RNA:ligand 1:50): -5.00%
LOGSY factor (ATTL RNA; qz2 peak K, RNA:ligand 1:50): 14.4%
viral titers in supernatants (TCID50) (SARS-CoV-2): below the limit of detection

Source: article PMC9784969, “SARS-CoV-2 Inhibitors Identified by Phenotypic Analysis of a Collection of Viral RNA-Binding Molecules” (Pharmaceuticals, 2022)
